How the values were obtained:
[1] = biological target: Fibroblast growth factor receptor 1 (Homo sapiens, UniProt P11362); test: Inhibition of FGFR1 (unknown origin) incubated for 60 mins by caliper microfluidic mobility shift technology based assay
[2] = biological target: Platelet-derived growth factor receptor alpha (Homo sapiens, UniProt P16234); test: Inhibition of PDGFRalpha (unknown origin)
[3] = biological target: Platelet-derived growth factor receptor beta (Homo sapiens, UniProt P09619); test: Inhibition of PDGFRbeta (unknown origin)
[4] = biological target: Tyrosine-protein kinase JAK3 (Homo sapiens, UniProt P52333); test: Inhibition of JAK3 (unknown origin)
[5] = biological target: MAP kinase-activated protein kinase 3 (Homo sapiens, UniProt Q16644); test: Inhibition of MAPKAPK3 (unknown origin)
Focal adhesion kinase 1 = Focal adhesion kinase 1 (Homo sapiens, UniProt Q05397); test: Inhibition of FAK (unknown origin)
[6] = biological target: Tyrosine-protein kinase receptor UFO (Homo sapiens, UniProt P30530); test: Inhibition of AXL (unknown origin)
[7] = biological target: Mast/stem cell growth factor receptor Kit (Homo sapiens, UniProt P10721); test: Inhibition of C-KIT (unknown origin)
[8] = biological target: Vascular endothelial growth factor receptor 3 (Homo sapiens, UniProt P35916); test: Inhibition of FLT4 (unknown origin)
Hep 3B2 [9] = test: Antitumor activity against human Hep3B cells xenografted in nude BALB/c mouse assessed as inhibition of tumor growth at 3 mg/kg bid for 14 days and measured twice per week relative to untreated control; assay type: functional; details: 336 h, read-out: TGI
[10] = Toxicity in male BALB/c mouse assessed as effect on clinical pathology parameters at 200 to 2000 mg/kg, ig administered as single dose measured after 14 days; assay type: organism-based; details: in vivo, po, 336 h
[11] = Toxicity in male BALB/c mouse at 200 to 2000 mg/kg, ig administered as single dose measured after 14 days; assay type: organism-based; details: in vivo, po
[12] = Toxicity in female BALB/c mouse at 200 to 2000 mg/kg, ig administered as single dose measured after 14 days; assay type: organism-based; details: in vivo, po
Hep 3B2 [13] = test: cells; details: Homo sapiens, Hep3B, 72 h

Chain of Tyrosine-protein kinase JAK3 (P52333 whole entry): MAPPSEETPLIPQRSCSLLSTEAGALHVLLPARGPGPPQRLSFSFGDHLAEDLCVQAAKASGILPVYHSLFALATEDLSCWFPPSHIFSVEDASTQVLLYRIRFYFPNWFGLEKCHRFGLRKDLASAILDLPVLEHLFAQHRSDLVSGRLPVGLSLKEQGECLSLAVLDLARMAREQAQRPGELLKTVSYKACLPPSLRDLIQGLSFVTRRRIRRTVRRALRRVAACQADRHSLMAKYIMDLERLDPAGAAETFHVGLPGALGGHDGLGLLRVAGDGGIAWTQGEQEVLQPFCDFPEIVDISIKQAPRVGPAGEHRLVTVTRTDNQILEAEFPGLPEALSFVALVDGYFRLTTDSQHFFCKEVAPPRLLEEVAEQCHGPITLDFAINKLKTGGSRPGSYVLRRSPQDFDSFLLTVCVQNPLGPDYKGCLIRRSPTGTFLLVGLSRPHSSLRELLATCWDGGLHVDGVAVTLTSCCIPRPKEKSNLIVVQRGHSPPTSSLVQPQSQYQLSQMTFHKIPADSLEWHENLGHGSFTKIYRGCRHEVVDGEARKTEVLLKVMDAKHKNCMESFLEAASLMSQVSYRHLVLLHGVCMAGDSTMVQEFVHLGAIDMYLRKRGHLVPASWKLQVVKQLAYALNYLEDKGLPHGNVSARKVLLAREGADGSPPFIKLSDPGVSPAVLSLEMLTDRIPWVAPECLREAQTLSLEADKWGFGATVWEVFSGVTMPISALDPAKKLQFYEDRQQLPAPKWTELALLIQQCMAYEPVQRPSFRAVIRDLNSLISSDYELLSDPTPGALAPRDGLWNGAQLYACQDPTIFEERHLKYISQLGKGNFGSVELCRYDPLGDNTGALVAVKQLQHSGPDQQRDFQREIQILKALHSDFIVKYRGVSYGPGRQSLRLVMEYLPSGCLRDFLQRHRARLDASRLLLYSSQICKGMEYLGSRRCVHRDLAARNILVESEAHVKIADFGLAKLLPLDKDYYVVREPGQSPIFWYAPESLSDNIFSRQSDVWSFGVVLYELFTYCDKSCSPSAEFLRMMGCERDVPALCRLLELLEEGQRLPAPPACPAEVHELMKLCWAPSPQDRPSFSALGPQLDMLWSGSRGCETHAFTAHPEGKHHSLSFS
Chain of Platelet-derived growth factor receptor beta (P09619 whole entry): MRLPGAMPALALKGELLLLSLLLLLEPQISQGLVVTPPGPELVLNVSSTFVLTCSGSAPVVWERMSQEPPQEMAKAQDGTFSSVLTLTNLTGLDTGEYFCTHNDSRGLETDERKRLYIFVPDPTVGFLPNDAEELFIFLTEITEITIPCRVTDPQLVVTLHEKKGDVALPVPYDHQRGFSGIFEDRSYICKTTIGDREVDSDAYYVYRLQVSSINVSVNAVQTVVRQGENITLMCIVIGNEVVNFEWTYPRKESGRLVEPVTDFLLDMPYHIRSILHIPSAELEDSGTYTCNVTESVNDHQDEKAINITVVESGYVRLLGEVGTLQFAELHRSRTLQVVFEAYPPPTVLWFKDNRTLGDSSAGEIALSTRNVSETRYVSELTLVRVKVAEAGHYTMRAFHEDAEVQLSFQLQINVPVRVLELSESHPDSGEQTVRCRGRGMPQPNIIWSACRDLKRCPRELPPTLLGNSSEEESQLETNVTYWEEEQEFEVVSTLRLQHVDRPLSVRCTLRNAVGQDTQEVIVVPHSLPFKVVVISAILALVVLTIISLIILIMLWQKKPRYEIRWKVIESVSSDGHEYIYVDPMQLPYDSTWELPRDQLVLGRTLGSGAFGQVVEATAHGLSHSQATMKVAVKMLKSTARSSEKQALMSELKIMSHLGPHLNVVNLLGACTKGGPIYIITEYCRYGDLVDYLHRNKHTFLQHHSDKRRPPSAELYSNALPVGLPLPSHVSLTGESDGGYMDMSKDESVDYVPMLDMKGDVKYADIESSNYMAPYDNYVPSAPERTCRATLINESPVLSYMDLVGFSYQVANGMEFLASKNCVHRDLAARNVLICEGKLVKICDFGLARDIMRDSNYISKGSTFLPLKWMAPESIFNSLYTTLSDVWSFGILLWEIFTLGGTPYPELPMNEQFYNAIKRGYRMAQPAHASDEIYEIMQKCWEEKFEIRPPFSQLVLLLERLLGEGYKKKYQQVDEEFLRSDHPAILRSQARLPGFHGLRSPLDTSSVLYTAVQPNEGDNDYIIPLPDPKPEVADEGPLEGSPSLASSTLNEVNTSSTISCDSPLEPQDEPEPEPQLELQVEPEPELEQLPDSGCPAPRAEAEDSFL
Chain of MAP kinase-activated protein kinase 3 (Q16644 whole entry): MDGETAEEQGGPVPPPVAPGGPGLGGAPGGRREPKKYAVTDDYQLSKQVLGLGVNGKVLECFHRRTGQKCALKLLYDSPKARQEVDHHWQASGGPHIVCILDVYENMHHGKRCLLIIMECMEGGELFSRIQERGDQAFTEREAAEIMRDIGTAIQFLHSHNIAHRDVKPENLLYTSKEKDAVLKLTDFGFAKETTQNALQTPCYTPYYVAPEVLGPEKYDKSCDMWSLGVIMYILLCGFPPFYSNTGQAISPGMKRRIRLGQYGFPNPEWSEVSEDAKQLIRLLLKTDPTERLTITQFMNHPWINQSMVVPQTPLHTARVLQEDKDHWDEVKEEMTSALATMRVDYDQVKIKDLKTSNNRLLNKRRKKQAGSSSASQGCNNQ
Chain of Vascular endothelial growth factor receptor 3 (P35916 whole entry): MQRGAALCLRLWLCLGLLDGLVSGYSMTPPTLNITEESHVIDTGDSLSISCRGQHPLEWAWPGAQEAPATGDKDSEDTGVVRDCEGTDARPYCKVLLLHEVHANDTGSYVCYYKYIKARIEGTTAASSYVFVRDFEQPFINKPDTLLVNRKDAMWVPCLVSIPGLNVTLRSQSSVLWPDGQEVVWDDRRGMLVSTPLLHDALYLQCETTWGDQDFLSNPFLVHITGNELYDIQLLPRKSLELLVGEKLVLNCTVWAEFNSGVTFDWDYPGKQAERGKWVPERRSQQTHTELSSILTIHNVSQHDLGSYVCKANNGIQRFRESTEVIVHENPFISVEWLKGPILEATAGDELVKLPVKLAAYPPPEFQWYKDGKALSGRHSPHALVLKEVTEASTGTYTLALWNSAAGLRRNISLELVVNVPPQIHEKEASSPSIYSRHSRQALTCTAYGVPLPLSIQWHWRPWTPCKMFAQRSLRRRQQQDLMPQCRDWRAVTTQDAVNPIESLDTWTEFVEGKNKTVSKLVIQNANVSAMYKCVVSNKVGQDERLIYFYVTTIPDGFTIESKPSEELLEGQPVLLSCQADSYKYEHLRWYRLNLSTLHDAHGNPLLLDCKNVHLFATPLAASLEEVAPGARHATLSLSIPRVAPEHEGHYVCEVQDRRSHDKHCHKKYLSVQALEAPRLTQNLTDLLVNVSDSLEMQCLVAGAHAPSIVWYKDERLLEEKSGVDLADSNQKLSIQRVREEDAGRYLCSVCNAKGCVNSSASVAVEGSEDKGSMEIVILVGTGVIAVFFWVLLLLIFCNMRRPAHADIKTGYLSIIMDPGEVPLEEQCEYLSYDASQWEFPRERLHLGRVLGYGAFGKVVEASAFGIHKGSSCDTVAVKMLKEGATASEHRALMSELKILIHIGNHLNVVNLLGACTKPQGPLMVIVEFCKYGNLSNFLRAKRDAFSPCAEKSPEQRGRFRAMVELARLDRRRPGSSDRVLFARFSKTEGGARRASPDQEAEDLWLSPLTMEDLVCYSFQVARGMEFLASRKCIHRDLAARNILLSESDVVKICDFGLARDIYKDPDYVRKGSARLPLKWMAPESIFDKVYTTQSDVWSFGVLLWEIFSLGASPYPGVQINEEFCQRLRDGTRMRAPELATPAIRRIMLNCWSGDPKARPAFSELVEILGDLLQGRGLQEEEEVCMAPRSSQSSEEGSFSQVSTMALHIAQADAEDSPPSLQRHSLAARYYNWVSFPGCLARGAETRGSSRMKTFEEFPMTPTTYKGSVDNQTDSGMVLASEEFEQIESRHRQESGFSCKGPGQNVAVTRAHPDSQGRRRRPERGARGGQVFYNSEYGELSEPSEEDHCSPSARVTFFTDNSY
Chain of Fibroblast growth factor receptor 1 (P11362 whole entry): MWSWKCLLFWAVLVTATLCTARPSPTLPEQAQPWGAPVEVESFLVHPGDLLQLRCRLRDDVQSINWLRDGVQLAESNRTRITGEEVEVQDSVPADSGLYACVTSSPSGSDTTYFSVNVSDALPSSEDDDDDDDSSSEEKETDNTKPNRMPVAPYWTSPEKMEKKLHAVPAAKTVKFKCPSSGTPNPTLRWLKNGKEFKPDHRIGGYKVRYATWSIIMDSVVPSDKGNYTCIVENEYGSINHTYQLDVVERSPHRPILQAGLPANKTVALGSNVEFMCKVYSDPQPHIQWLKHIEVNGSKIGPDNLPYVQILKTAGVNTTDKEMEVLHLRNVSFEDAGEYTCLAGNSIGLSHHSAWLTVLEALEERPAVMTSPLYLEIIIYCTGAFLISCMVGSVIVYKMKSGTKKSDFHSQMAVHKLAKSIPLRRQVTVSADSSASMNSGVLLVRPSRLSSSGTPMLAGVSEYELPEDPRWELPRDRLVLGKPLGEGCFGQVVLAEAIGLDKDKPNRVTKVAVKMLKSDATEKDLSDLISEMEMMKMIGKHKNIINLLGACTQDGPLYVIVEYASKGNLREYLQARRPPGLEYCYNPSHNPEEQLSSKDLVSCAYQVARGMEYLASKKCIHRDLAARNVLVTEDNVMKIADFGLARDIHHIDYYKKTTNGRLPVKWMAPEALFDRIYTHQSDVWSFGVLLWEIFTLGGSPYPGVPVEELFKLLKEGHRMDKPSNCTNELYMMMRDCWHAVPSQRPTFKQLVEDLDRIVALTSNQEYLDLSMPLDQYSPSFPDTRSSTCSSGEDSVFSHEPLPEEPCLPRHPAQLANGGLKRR

Which IC50 [1] does the source give for COC[C@@H](C)Nc1cc(NC(=O)N2CCCc3cc(CN4CCCCOC4=O)c(C=O)nc32)ncc1C#N here?
Its IC50 is > 10 µM.

And the IC50 [2]?
The IC50 was > 10 µM.

What about the IC50 [3] of the same compound?
Its IC50 is > 10 µM.

What about the IC50 [4] of the same compound?
Its IC50 is > 10 µM.

What about the IC50 [5] of the same compound?
The IC50 was > 10 µM.

What about the IC50 (Focal adhesion kinase 1) of the same compound?
Its IC50 is > 10 µM.

And the IC50 [6]?
The IC50 was > 10 µM.

And the IC50 [7]?
The IC50 was > 10 µM.

And the IC50 [8]?
The IC50 was > 10 µM.

What about the inhibition in vivo at 3 mg/kg (Hep 3B2 [9]) of the same compound?
The inhibition in vivo at 3 mg/kg was 69.8%.

What about the Activity [10] of the same compound?
Its Activity is “Non-Toxic”.

What about the NOAEL at 336 h [11] of the same compound?
Its NOAEL at 336 h is 2000 mg/kg/day.

And the NOAEL at 336 h [12]?
Its NOAEL at 336 h is 2000 mg/kg/day.

And the IC50 (Hep 3B2 [13])?
The IC50 was 0.0011 µM.
